Patent publication US8889732B2, “Fused heterocyclic compounds and thrombopoietin receptor activators” (Nissan Chemical Industries, Ltd., priority 2009, dated 2014)

Columns and labels:
[1] = biological target: T1, human thrombopoietin receptor (c-mpl) (Homo sapiens, UniProt P40238); experiment: Stimulation of proliferation of thrombopoietin-dependent cell line UT7/EPO-mpl (WST-8); assay type: cell-based; settings: for EC50: concentration yielding growth rate corresponding to 50% of growth of UT-7/EPO-mpl in the presence of 10 ng/mL TPO, 4 days incubation, WST-8
T1 construct: expressed in transfected cells
T1 sequence (P40238 26-635): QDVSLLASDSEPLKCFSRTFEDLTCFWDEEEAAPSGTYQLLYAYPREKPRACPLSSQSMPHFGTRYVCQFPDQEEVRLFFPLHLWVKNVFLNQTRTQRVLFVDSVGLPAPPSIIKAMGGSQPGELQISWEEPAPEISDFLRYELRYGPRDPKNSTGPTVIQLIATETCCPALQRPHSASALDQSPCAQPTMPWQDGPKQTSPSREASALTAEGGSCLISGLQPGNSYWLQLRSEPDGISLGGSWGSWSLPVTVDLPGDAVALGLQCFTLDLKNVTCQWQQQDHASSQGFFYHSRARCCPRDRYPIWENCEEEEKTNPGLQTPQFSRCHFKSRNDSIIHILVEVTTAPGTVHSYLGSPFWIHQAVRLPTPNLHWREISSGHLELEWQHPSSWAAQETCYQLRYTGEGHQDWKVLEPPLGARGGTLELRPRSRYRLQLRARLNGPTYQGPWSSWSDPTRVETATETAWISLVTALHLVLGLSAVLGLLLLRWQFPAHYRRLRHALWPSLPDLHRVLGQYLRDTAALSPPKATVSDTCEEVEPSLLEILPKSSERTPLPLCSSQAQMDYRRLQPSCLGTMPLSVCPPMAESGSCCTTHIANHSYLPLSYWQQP
Protocol: The responses of thrombopoietin receptor to the compounds of Synthetic Examples of the present invention were assayed using a human leukemic cell line, UT7/EPO-mpl.
(§1) UT7/EPO-mpl is a stable transformed cell line obtained by introducing into human leukemic cell line UT7/EPO a vector that induces expression of human thrombopoietin receptor (c-mpl) under control of cytomegalovirus immediate-early promoter by the method of Takatoku et al. (J. Biol. Chem., 272:7259-7263 (1997)). […] These two cell lines were subcultured in IMDM (Invitrogen) containing 10% fetal bovine serum (Thermo Electron or BioWest) using a CO2 incubator (5% CO2, 37° C.).
(§2) The subcultured cells described above were washed twice with PBS and suspended in IMDM containing 10% fetal bovine serum at a cell density of 6×10^4 cells/ml. The cell suspension was transferred to a 96-well tissue culture plate (CORNING) in 100-μl aliquots. Then either thrombopoietin (Pepro Tech EC) or the compound of Synthetic Examples dissolved in dimethyl sulfoxide were diluted 83-fold with IMDM containing 10% fetal bovine serum and added to the aforementioned cell suspension in 20-μl aliquots. The cell suspension was incubated in a CO2 incubator (5% CO2, 37° C.) for 4 days. Cell proliferation was assayed using WST-8 reagent (Kishida Chemical Co., Ltd.) according to instructions by the manufacturer. A 10-μl aliquot of 5 mM WST-8 reagent solution was added to each well of the tissue culture plate, and the plate was incubated at 37° C. for 4 hours. The formazan pigment generated was detected by measuring the absorbance at 450 nm with a 96-well microplate reader (Nihon Molecular Devices, Spectramax 190).

[2] = system: UT7/EPO; experiment: Proliferation of mother cell line UT7/EPO (no c-mpl); assay type: cell-based, human; settings: UT7/EPO cells without c-mpl
Protocol: as §1
as §2, with “A 10-μl aliquot of 5 mM WST-8 reagent solution was added to each well of the tissue culture plate, and the plate was incubated at 37° C. for 4 hours.” left out

Row | Compound | Proliferation of thrombopoietin-responsive UT7/EPO-mpl cells ([1]; UT7/EPO-mpl cells) | EC50 [1] | Effect on proliferation of UT7/EPO, the mother cell line [2]
1 | TPO: thrombopoietin (Pepro Tech EC), a cytokine consisting of 332 amino acids | stimulated |  | no response
2 | COC(=O)c1ccc(C(=O)N/N=C(\C)c2csc(-c3ccc4c(c3)CCCC4)c2O)cc1 [compound 37] |  | 40.1 nM | 

Continued by falling EC50 [1], values first:

Row | Proliferation of thrombopoietin-responsive UT7/EPO-mpl cells ([1]; UT7/EPO-mpl cells) | EC50 [1] | Compound | Effect on proliferation of UT7/EPO, the mother cell line [2]
3 |  | 6.79 nM | C/C(=N\NC(=S)Nc1ccc(C(=O)O)c(Cl)c1)c1csc(-c2ccc3c(c2)CCC3)c1O [compound 41] | 
4 |  | 5.8 nM | C/C(=N\NC(=S)Nc1ccc(C(=O)O)cc1)c1csc(-c2ccc3c(c2)CCCC3)c1O [compound 60] | 
5 |  | 4.08 nM | C/C(=N\NC(=S)Nc1cccc(-c2nnn[nH]2)c1)c1csc(-c2ccc3c(c2)CCCC3)c1O [compound 61] | 
